According to patent US11352350B2, “IRAK degraders and uses thereof” (Kymera Therapeutics, Inc., priority 2018, dated 2022):
Where two headings read alike, the source gives them in different places.

How the values were obtained:
[1] = tested on: OCI-LY10; experiment: OCI-LY10 viability, CTG; assay type: cell-based; settings: for IC50: Homo sapiens, OCI-Ly10
[2] = tested on: OCI-LY10 tumor cells; experiment: OCI-LY10 large B lymphoma xenograft model in C.B. 17 SCID mice; assay type: in vivo, mouse
Procedure: Cell Culture: The OCI-LY10 or TMD8 tumor cells were maintained as suspension in RPMI1640 medium supplemented with 10% fetal bovine serum, 100 U/mL penicillin and 100 μg/mL streptomycin at 37° C. in an atmosphere of 5% CO2 in air. The tumor cells were routinely subcultured twice weekly by trypsin-EDTA treatment. The cells growing in an exponential growth phase were harvested and counted for tumor inoculation.
Animals: C.B. 17 SCID, female, 6-8 weeks, weighing approximately 16-18 g were used. Animals were housed and maintained according to IACUC protocols.
Tumor Inoculation: Each mouse was inoculated subcutaneously at the right flank with OCI-LY10 or TMD8 tumor cells (10×10^6) in 0.2 mL of PBS with matrigel for tumor development. The treatments were started when the tumor sizes reached approximately 150-450 mm^3 for the studies.
Assignment to Groups: Before commencement of treatment, all animals were weighed and the tumor volumes were measured. Since the tumor volume can affect the compound PK/PD, mice are assigned into groups using an Excel-based randomization procedure performing stratified randomization based upon their tumor volumes.
Observation: After tumor inoculation, the animals were checked daily for morbidity and mortality. During routine monitoring, the animals were checked for any effects of tumor growth and treatments on behavior such as mobility, food and water consumption, body weight gain/loss, eye/hair matting and any other abnormalities. Mortality and observed clinical signs were recorded for individual animals in detail.
Data Collection: Tumor volumes were measured in two dimensions using a caliper, and the volumes were expressed in mm^3 using the formula: “V=(L×W×W)/2, where V is tumor volume, L is tumor length (the longest tumor dimension) and W is tumor width (the longest tumor dimension perpendicular to L).
At termination: At pre-determined time points based on study design, animals were humanely sacrificed by CO2. Blood was obtained by cardiac puncture for isolation of plasma, any residual tumor was removed and divided in 2 portions, 1 (minimal) for terminal compound exposure and 1 to determine IRAK4 and actin. Compound was determined in tumor and plasma using LC/MS with calibrated standards.

[3] = target: IRAK4 (Homo sapiens (Human), UniProt Q9NWZ3); experiment: IRAK4 degradation in human whole blood monocyte - flow cytometry; assay type: cell-based; settings: read-out: IRAK4 degradation in whole blood monocyte-Flow cytometry: Average external Abs IC50
Procedure, shortened: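 Fresh heparinized human whole blood dosed (10-point, 5-fold, 0.1% DMSO) for 20 h or 4 h at 37 °C, then fixed, stained and IRAK4 MFI quantified by flow in CD14+ monocytes and CD14− lymphocytes. DC50 and Dmax via 4-parameter logistic fit normalized to DMSO and 10 μM control.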

[4] = tested on: TNFα; experiment: Human whole blood LPS TNFα assay; assay type: cell-based; settings: 20 h pretreatment, LPS 5 h, read-out: IRAK4 human whole blood LPS TNFa inhibition: Average external-IC50
Procedure, shortened: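 Fresh human whole blood pretreated 20 h at 37 °C with compound (8-point, 5-fold dilution from 2 μM start), then stimulated with 100 ng/ml LPS (final) for 5 h. Plasma TNFα quantified by MSD V-plex, normalised to stimulated and unstimulated controls; IC50 from 4-parameter logistic fit.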

IRAK4, sequence (Q9NWZ3 whole entry): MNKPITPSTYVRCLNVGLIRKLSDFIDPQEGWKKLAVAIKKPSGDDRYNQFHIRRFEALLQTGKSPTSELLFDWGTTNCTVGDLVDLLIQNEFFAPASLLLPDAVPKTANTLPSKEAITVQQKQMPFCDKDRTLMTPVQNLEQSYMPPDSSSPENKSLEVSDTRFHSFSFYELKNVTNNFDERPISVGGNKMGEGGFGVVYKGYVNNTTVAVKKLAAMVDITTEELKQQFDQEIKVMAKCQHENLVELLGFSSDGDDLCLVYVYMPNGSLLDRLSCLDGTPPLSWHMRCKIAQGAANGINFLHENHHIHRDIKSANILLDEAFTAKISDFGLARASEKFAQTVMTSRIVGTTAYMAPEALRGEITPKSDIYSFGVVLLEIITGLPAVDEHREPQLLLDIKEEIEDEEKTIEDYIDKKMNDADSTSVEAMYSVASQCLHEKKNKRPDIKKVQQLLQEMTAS

Compound | Cell Titer Glo assay, combination effect ([1]; combination of ibrutinib and degrader I-30 (FIG. 12B)) | antitumor effect in OCI-LY10 xenograft ([2]; FIG. 6 A-C) | in vivo tumor growth inhibition, combination with ibrutinib ([2]; OCI-LY10 (MYD88 L265P, CD79 mutant), combination of I-30 and ibrutinib at sub-optimal single agent concentrations, FIG. 13) | in vivo tumor growth of implanted OCI-LY10 (MYD88 mutant) cells ([2]; PO BID administration, FIG. 7) | IC50 [3] [nM] | IC50 [4] [nM] | IC50 ([1]; MYD88 MUT, read-out: OCI-LY10 CTG IC50) [nM] | IC50 ([1]; MYD88 Mutant Lines, read-out: OCI-LY10 Viability, CTG IC50) [nM] | antitumor activity against OCI-LY10, oral dosing ([2]; xenograft-bearing mice, FIG. 14) | DC50 [3] [nM]
CN(CCCOCCCc1cccc2c1n(C)c(=O)n2C1CCC(=O)NC1=O)C[C@H]1CC[C@H](n2cc(NC(=O)c3coc(-c4ccnc(NCC5CC5)c4)n3)c(C(F)F)n2)CC1 (mixture of isomers) [I-30, 2-[2-(Cyclopropylmethylamino)-4-pyridyl]-N-[3-(difluoromethyl)-1-[4-[[3-[3-[1-(2,6-dioxo-3-piperidyl)-3-methyl-2-oxo-benzimidazol-4-yl]propoxy]propyl-methyl-amino]methyl]cyclohexyl]pyrazol-4-yl] oxazole-4-carboxamide] | synergism | causes tumor regression | synergistic in vivo tumor growth inhibition | inhibits in vivo tumor growth | < 50 | 100 to 500 |  |  |  | 
CN(C[C@H]1CC[C@H](n2cc(NC(=O)c3coc(-c4ccnc(NCC5CC5)c4)n3)c(C(F)F)n2)CC1)C1CCN(Cc2cccc3c2n(C)c(=O)n3C2CCC(=O)NC2=O)CC1 (some centres unmarked) [I-75, 2-(2-((cyclopropylmethyl)amino)pyridin-4-yl)-N-(3-(difluoromethyl)-1-((1r,4r)-4-(((1-((1-(2,6-dioxopiperidin-3-yl)-3-methyl-2-oxo-2,3-dihydro-1H-benzo[d]imidazol-4-yl)methyl)piperidin-4-yl)(methyl)amino)methyl)cyclohexyl)-1H-pyrazol-4-yl)oxazole-4-carboxamide] |  |  |  |  |  | > 1000 | 11 | 11 | dose-dependent antitumor activity | 50 to 100
